According to patent US20160176880A1, “SUBSTITUTED IMIDAZO[1,2-A]PYRAZINECARBOXAMIDES AND USE THEREOF” (BAYER PHARMA AKTIENGESELLSCHAFT, priority 2013, published 2016):
Counter-ions that a name gives are not always drawn. One block for each compound: values may come before it.

Target: T1, recombinant guanylate cyclase reporter cell line (Rattus norvegicus, UniProt P19686+P20595)
T1 construct: expressed in transfected cells
T1 sequence (P19686 1-690): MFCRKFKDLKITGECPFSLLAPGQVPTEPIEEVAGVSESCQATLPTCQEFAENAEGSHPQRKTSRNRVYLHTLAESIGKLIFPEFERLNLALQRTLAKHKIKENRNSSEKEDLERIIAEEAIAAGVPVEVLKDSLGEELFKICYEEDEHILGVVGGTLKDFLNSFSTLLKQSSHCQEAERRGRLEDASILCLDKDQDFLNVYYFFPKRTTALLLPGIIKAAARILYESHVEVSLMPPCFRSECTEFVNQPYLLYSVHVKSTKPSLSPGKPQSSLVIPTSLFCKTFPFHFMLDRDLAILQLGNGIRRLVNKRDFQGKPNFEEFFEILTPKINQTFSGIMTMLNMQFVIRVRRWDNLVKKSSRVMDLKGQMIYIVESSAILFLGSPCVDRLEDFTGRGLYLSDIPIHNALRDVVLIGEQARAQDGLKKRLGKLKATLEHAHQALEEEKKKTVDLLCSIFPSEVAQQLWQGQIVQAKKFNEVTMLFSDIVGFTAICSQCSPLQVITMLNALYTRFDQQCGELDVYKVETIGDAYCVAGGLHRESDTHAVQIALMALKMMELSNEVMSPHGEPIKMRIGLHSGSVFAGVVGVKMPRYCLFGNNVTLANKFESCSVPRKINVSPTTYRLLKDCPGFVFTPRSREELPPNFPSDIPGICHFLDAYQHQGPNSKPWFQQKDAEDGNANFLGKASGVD
T1 sequence (P20595 1-619): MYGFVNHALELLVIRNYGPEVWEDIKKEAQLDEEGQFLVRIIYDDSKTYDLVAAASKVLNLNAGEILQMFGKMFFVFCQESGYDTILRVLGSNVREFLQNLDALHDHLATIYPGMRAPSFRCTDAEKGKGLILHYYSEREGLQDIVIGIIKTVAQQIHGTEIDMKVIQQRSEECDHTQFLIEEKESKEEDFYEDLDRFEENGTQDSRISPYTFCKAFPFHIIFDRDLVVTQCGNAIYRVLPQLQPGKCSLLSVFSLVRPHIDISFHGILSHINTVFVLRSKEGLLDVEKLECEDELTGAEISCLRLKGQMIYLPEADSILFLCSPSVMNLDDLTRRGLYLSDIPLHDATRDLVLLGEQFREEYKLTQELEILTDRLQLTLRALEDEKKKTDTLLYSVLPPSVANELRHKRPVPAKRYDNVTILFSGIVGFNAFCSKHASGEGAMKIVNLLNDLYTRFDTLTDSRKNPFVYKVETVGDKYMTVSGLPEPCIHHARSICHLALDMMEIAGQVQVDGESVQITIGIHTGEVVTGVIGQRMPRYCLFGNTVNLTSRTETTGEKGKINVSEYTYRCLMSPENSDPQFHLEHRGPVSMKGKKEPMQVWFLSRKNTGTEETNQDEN
Experiment: Effect on a recombinant guanylate cyclase reporter cell line
Type: cell-based
Conditions: MEC = minimum effective concentration; in some cases mean values for individual determinations
Procedure: B-2. Effect on a Recombinant Guanylate Cyclase Reporter Cell Line
The cellular action of the compounds of the invention is determined using a recombinant guanylate cyclase reporter cell line, as described in F. Wunder et al., Anal. Biochem. 339, 104-112 (2005).
Representative MEC values (MEC=minimum effective concentration) for the compounds of the invention are shown in the table below (in some cases as mean values for individual determinations): […]

SMILES: Cc1cn2c(C(=O)NCCC3(O)CCCC3)c(C)nc2c(OCc2c(F)cccc2F)n1 [Example 12, 8-[(2,6-Difluorobenzyl)oxy]-N-[2-(1-hydroxycyclopentyl)ethyl]-2,6-dimethylimidazo[1,2-a]pyrazine-3-carboxamide]
- MEC: 1 µM

SMILES: Cc1cn2c(C(=O)Nc3cnn(CC(F)(F)F)c3)c(C)nc2c(OCc2c(F)cccc2F)n1 [Example 24, 8-[(2,6-difluorobenzyl)oxy]-2,6-dimethyl-N-[1-(2,2,2-trifluoroethyl)-1H-pyrazol-4-yl]imidazo[1,2-a]pyrazine-3-carboxamide]
- MEC: 3 µM

SMILES: CCC(CO)(CO)NC(=O)c1c(C)nc2c(OCc3c(F)cccc3F)nc(C)cn12 [Example 35, 8-[(2,6-difluorobenzyl)oxy]-N-[1-hydroxy-2-(hydroxymethyl)butan-2-yl]-2,6-dimethylimidazo[1,2-a]pyrazine-3-carboxamide]
- MEC: 3 µM

SMILES: Cc1cn2c(C(=O)NC3(c4ccc(F)c(F)c4)CC3)c(C)nc2c(OCc2c(F)cccc2F)n1 [Example 4, 8-[(2,6-Difluorobenzyl)oxy]-N-[1-(3,4-difluorophenyl)cyclopropyl]-2,6-dimethylimidazo[1,2-a]pyrazine-3-carboxamide]
- MEC: 1 µM

SMILES: Cc1cn2c(C(=O)NC3CC(C)(C)NC(C)(C)C3)c(C)nc2c(OCc2c(F)cccc2F)n1 [Example 16, 8-[(2,6-difluorobenzyl)oxy]-2,6-dimethyl-N-(2,2,6,6-tetramethylpiperidin-4-yl)imidazo[1,2-a]pyrazine-3-carboxamide]
- MEC: 3 µM

SMILES: Cc1cn2c(C(=O)NCc3ccccc3-c3cccnc3)c(C)nc2c(OCc2c(F)cccc2F)n1 [Example 21, 8-[(2,6-difluorobenzyl)oxy]-2,6-dimethyl-N-[2-(pyridin-3-yl)benzyl]imidazo[1,2-a]pyrazine-3-carboxamide]
- MEC: 3 µM

SMILES: Cc1cn2c(C(=O)Nc3cnn4ccccc34)c(C)nc2c(OCc2c(F)cccc2F)n1 [Example 30, 8-[(2,6-difluorobenzyl)oxy]-2,6-dimethyl-N-(pyrazolo[1,5-a]pyridin-3-yl)imidazo[1,2-a]pyrazine-3-carboxamide]
- MEC: 3 µM

SMILES: Cc1cn2c(C(=O)NCC(C)(N)CF)c(C)nc2c(OCc2c(F)cccc2F)n1 (single isomer, unassigned; enantiomer b) [Example 37, ent-N-(2-Amino-3-fluoro-2-methylpropyl)-8-[(2,6-difluorobenzyl)oxy]-2,6-dimethylimidazo[1,2-a]pyrazine-3-carboxamide (enantiomer B)]
- MEC: 0.3 µM

SMILES: CC[C@](C)(N)CNC(=O)c1c(C)nc2c(OCc3c(F)cccc3F)nc(C)cn12 [Example 1, ent-N-[(2S)-2-Amino-2-methylbutyl]-8-[(2,6-difluorobenzyl)oxy]-2,6-dimethylimidazo[1,2-a]pyrazine-3-carboxamide]
- MEC: 0.77 µM

SMILES: Cc1cn2c(C(=O)Nc3c(C)nn(Cc4ccc(F)cc4)c3C)c(C)nc2c(OCc2c(F)cccc2F)n1 [Example 23, 8-[(2,6-difluorobenzyl)oxy]-N-[1-(4-fluorobenzyl)-3,5-dimethyl-1H-pyrazol-4-yl]-2,6-dimethylimidazo[1,2-a]pyrazine-3-carboxamide]
- MEC: 1 µM

SMILES: Cc1cn2c(C(=O)NCC(C)(N)CC(C)C)c(C)nc2c(OCc2c(F)cccc2F)n1 (racemic) [Example 5, rac-N-(2-Amino-2,4-dimethylpentyl)-8-[(2,6-difluorobenzyl)oxy]-2,6-dimethylimidazo[1,2-a]pyrazine-3-carboxamide]
- MEC: 1 µM

SMILES: Cc1cn2c(C(=O)NCc3ccc(Cl)nc3)c(C)nc2c(OCc2c(F)cccc2F)n1 [Example 28, N-[(6-chloropyridin-3-yl)methyl]-8-[(2,6-difluorobenzyl)oxy]-2,6-dimethylimidazo[1,2-a]pyrazine-3-carboxamide]
- MEC: 1 µM

SMILES: Cc1cn2c(C(=O)NC3c4ccccc4CC3O)c(C)nc2c(OCc2c(F)cccc2F)n1 (stereo not drawn) [Example 13, 8-[(2,6-difluorobenzyl)oxy]-N-(2-hydroxy-2,3-dihydro-1H-inden-1-yl)-2,6-dimethylimidazo[1,2-a]pyrazine-3-carboxamide]
- MEC: 3 µM

SMILES: Cc1cn2c(C(=O)Nc3c(C)nn(CCO)c3C)c(C)nc2c(OCc2c(F)cccc2F)n1 [Example 18, 8-[(2,6-difluorobenzyl)oxy]-N-[1-(2-hydroxyethyl)-3,5-dimethyl-1H-pyrazol-4-yl]-2,6-dimethylimidazo[1,2-a]pyrazine-3-carboxamide]
- MEC: 3 µM

SMILES: Cc1cn2c(C(=O)NCCN3CCOCC3)c(C)nc2c(OCc2c(F)cccc2F)n1 [Example 22, 8-[(2,6-difluorobenzyl)oxy]-2,6-dimethyl-N-[2-(morpholin-4-yl)ethyl]imidazo[1,2-a]pyrazine-3-carboxamide]
- MEC: 3 µM

SMILES: Cc1cn2c(C(=O)NC(CCC(F)(F)C(F)(F)F)C(C)(C)O)c(C)nc2c(OCc2c(F)cccc2F)n1 (single isomer, unassigned; ent-8) [Example 29, ent-8-[(2,6-difluorobenzyl)oxy]-2,6-dimethyl-N-(6,6,7,7,7-pentafluoro-2-hydroxy-2-methylheptan-3-yl)imidazo[1,2-a]pyrazine-3-carboxamide]
- MEC: 1 µM

SMILES: Cc1cn2c(C(=O)NC(C)C#N)c(C)nc2c(OCc2c(F)cccc2F)n1 (racemic) [Example 14, rac-N-(1-cyanoethyl)-8-[(2,6-difluorobenzyl)oxy]-2,6-dimethylimidazo[1,2-a]pyrazine-3-carboxamide]
- MEC: 3 µM

Second part, the compound after the results:

- MEC: 1.0 µM
SMILES: Cc1nc2c(OCC3CCCCC3)nccn2c1C(=O)NCc1ccc(F)c(F)c1 [Example 47, 8-(Cyclohexylmethoxy)-N-(3,4-difluorobenzyl)-2-methylimidazo[1,2-a]pyrazine-3-carboxamide]

- MEC: 3.0 µM
SMILES: C=CCONC(=O)c1c(C)nc2c(OCc3c(F)cccc3F)nc(C)cn12 [Example 51, N-(allyloxy)-8-[(2,6-difluorobenzyl)oxy]-2,6-dimethylimidazo[1,2-a]pyrazine-3-carboxamide trifluoroacetate]

- MEC: 0.3 µM
SMILES: Cc1cn2c(C(=O)NCC(C)(N)CC(F)F)c(C)nc2c(OCc2c(F)cccc2F)n1 (single isomer, unassigned; enantiomer b) [Example 42, ent-N-(2-Amino-4,4-difluoro-2-methylbutyl)-8-[(2,6-difluorobenzyl)oxy]-2,6-dimethylimidazo[1,2-a]pyrazine-3-carboxamide (enantiomer B)]

- MEC: 1.0 µM
SMILES: Cc1cn2c(C(=O)NNC3CCCC3O)c(C)nc2c(OCc2c(F)cccc2F)n1 (mixture of isomers) [Example 54, 8-[(2,6-difluorobenzyl)oxy]-N′-(2-hydroxycyclopentyl)-2,6-dimethylimidazo[1,2-a]pyrazine-3-carbohydrazide trifluoroacetate (mixture of stereoisomers)]

- MEC: 1.0 µM
SMILES: Cc1cn2c(C(=O)NCC3CCC(C#N)CC3)c(C)nc2c(OCc2c(F)cccc2F)n1 (mixture of isomers) [Example 50, N-[(4-cyanocyclohexyl)methyl]-8-[(2,6-difluorobenzyl)oxy]-2,6-dimethylimidazo[1,2-a]pyrazine-3-carboxamide trifluoroacetate (cis/trans mixture)]

- MEC: 0.65 µM
SMILES: Cc1cn2c(C(=O)NCC(C)(N)CC(F)F)c(C)nc2c(OCc2c(F)cccc2F)n1 (single isomer, unassigned; enantiomer a) [Example 41, ent-N-(2-Amino-4,4-difluoro-2-methylbutyl)-8-[(2,6-difluorobenzyl)oxy]-2,6-dimethylimidazo[1,2-a]pyrazine-3-carboxamide (enantiomer A)]

- MEC: 0.3 µM
SMILES: Cc1cn2c(C(=O)NCC(C)(N)CCCF)c(C)nc2c(OCc2c(F)cccc2F)n1 (single isomer, unassigned; enantiomer b) [Example 40, ent-N-(2-Amino-5-fluoro-2-methylpentyl)-8-[(2,6-difluorobenzyl)oxy]-2,6-dimethylimidazo[1,2-a]pyrazine-3-carboxamide (enantiomer B)]
